# From US20080234362A1, “Treatment for Asthma and Arthritis and Other Inflammatory Diseases” (BIONOVATE LIMITED, priority 2004, published 2008)
# “Also recorded” adds a separate entry of the source. Read-outs that look alike come from different tables or passages of the source.
# Experiments:
# mast cells = settings: cited from earlier work; for IC50: read-out: IC50 (μM) degranulation of mast cells; for ranking of activity in the anti-allergy model: mast cell degranulation
# [1] = in vitro; cited from earlier work
# [2] = test system: histamine, TNFα and IL-1B induced by IgE; settings: mouse and rat model; cited from earlier work
# TPA-induced ear oedema = settings: cited from earlier work
# [3] = test system: antigen-induced bronchoconstriction and airway hyper-reactivity; settings: oral, before and after sensitisation; ovalbumin; cited from earlier work
# TNFα = settings: cited from earlier work
# [4] = test system: Recurrent airway obstruction (RAO); experiment: double-blind placebo controlled clinical trial on recurrent airway obstruction in horses; type: in vivo; settings: horses with RAO
# Excerpt: A Double-Blind Placebo Controlled Clinical Trial comparing the Efficacy of the Green Lipped Mussel Lipid Extract and Flavonoid alone and in Combination on Recurrent Airway Obstruction in Horses.
# Recurrent airway obstruction (RAO), an equine asthma, is a chronic inflammatory disease of the airways typified by bronchoconstriction, wheezing and increased mucous production and caused by allergy to fungal and other dusts but mediated, in part, by leukotrienes and other lipid mediators. […] Studies included clinical status, exercise recovery, breath condensate, broncho-alveolar lavage, cytology and mucous scorings.
# Eight horses aged 9-21 with RAO symptoms and cytology consistent with the accepted definition of RAO were recruited.
# The study was a double blind randomized, placebo controlled trial. […]
# Subjects were clinically and endoscopically examined and BAL and condensate collected and frozen in liquid nitrogen every two weeks. […] The BAL cytology was scored by neutrophil count. Mucous was scored by location, type, volume and viscosity. […]
# The clinical assessments scores were assessed as a mean clinical RAO score. The clinical assessments were evaluated on a scale of 1-10 where 1 was severe disease symptomology and 10 indicated a disease-free condition score and the results are shown in Table 1 and FIG. 3. […]
# LTB4 production = settings: 9 g/day; cited from earlier work
compound,measurement,setting,value
O=c1cc(-c2ccccc2)oc2cc(O)cc(O)c12 [Chrysin],IC50,mast cells,> 100 µM
O=c1c(O)c(-c2cc(O)c(O)c(O)c2)oc2cc(O)cc(O)c12 [Myricetin],IC50,mast cells,6.7 µM
same,antioxidant efficiency versus traditional vitamins,[1],more efficient antioxidants than traditional vitamins
COc1ccc(-c2cc(=O)c3c(O)cc(O[C@@H]4O[C@H](CO[C@@H]5O[C@@H](C)[C@H](O)[C@@H](O)[C@H]5O)[C@@H](O)[C@H](O)[C@H]4O)cc3o2)cc1O [Diosmin],IC50,mast cells,> 100 µM
O=c1c(O)c(-c2ccccc2)oc2ccccc12 [3-hydroxyflavone],IC50,mast cells,> 100 µM
COc1ccc(-c2cc(=O)c3c(O)cc(O)cc3o2)cc1O [Diosmetin],ranking of activity in the anti-allergy model,mast cells,most active
O=c1c(O)c(-c2ccc(O)cc2O)oc2cc(O)cc(O)c12 [Morin],IC50,mast cells,51 µM
O=c1cc(-c2ccc(O)c(O)c2)oc2cc(O)cc(O)c12 [Luteolin],"potency on IgE-induced histamine, TNFα and IL-1B production versus other agents",[2],more potent than many other agents
same,"oral anti-inflammatory activity, TPA ear oedema",TPA-induced ear oedema,effective
same,ranking of activity in the anti-allergy model,mast cells,most potent
same,ranking of activity in the anti-allergy model,mast cells; listed as luteolin,most active
same,IC50,mast cells,1.8 µM
same,antigen-induced bronchoconstriction and airway hyper-reactivity,[3],significantly reduced
same,oral in vivo anti-TNFα activity,TNFα,potent; also recorded: more potent than apigenin; also recorded: inhibited
same,Mean clinical RAO score,"[4]; 4 capsules per day, 28 days, scale 1-10, 1 severe, 10 disease-free",3.38^ade
same,improvement of respiratory function,[4]; versus placebo,significantly (P<0.001) improved
O=c1c(O)c(-c2ccc(O)c(O)c2)oc2cc(O)cc(O)c12 [Quercetin],"potency on IgE-induced histamine, TNFα and IL-1B production versus other agents",[2],more potent than many other agents
same,"oral anti-inflammatory activity, TPA ear oedema",TPA-induced ear oedema,effective
same,ranking of activity in the anti-allergy model,mast cells,most active
same,IC50,mast cells,3 µM
same,antioxidant efficiency versus traditional vitamins,[1],more efficient antioxidants than traditional vitamins
"CC/C=C\C/C=C\C/C=C\CCCCCCCC(=O)O [a-LNA, a-linolenic acid]",LTB4 production and pulmonary function,LTB4 production,inhibit LTB4 production and improve pulmonary function
"O=c1c(O)c(-c2ccccc2)oc2ccc(O)cc12 [3,6-dihydroxyflavone]",IC50,mast cells,6 µM
O=c1cc(-c2ccccc2)oc2cc(O)c(O)c(O)c12 [Baicalein],"potency on IgE-induced histamine, TNFα and IL-1B production versus other agents",[2],more potent than many other agents
same,IC50,mast cells,17 µM
O=c1cc(-c2ccccc2)oc2cc(O)ccc12 [7-hydroxyflavone],IC50,mast cells,21 µM
O=c1c(O)c(-c2ccccc2)oc2cc(O)cc(O)c12 [Galangin],IC50,mast cells,40 µM
O=c1cc(-c2ccccc2)oc2ccc(O)cc12 [6-hydroxyflavone],IC50,mast cells,28 µM
O=c1cc(-c2ccccc2)oc2ccccc12 [Flavone],IC50,mast cells,> 100 µM
O=c1cc(-c2ccc(O)cc2)oc2cc(O)cc(O)c12 [Apigenin],ranking of activity in the anti-allergy model,mast cells,most active
same,IC50,mast cells,4.5 µM
same,oral in vivo anti-TNFα activity,TNFα,potent
O=c1c(O)c(-c2ccc(O)c(O)c2)oc2cc(O)ccc12 [Fisetin],ranking of activity in the anti-allergy model,mast cells,most active
same,IC50,mast cells,3.3 µM
O=c1c(O)c(-c2ccc(O)cc2)oc2cc(O)cc(O)c12 [Kaempferol],IC50,mast cells,7.5 µM
